Laboratory results from article PMC10060004, “A Self-Immolative Linker for the pH-Responsive Release of Amides” (Molecules, 2023).

Experiments:
[1] = Stability in solution at pH 7.4 (PBS / phosphate buffer), HPLC; format: physicochemical; settings: for pH 7.4, percentage of unmodified compound / pH 7.4, t1/2: pH 7.4 solution; for pH 7.4, percentage of unmodified compound: after 48 h of incubation; for pH 7.4, t1/2: time before half of the drug is degraded; for stability in solution at pH 7.4: PBS solution, pH 7.4, 48 h
Description: (§1) General procedure for release experiments. A 10 mM stock-solution of compounds 8a, 8b, 10, 15, 17, and 18 was prepared in DMSO and diluted in the corresponding buffers to obtain a 1 mM solution. In the case of compound 16, the 10 mM stock-solution was diluted in the corresponding buffer and additionally diluted with DMSO to obtain a final 0.67 mM solution in buffer/H2O/DMSO. For analysis at pH 7.4 and 6, phosphate buffers of 0.1 M were used (KH2PO4/K2HPO4). For pH 5.5 and 4.5, acetate buffer of 0.1 M was used (CH3COONa/CH3COOH). All compounds were mixed with the buffers at 25 °C and further incubated at 37 °C. HPLC analyses were carried out following the method reported in SI every 1–3 h up to 6 h and every 6 h up to 48 h.

Stability test in water = format: physicochemical; settings: for H2O, percentage of unmodified compound: after 48 h of incubation; for half-life: time before half of the drug is degraded, read-out: H2O, t1/2
Description: as §1

[2] = Stability in plasma experiments (pooled human plasma, UV/LC-MS); format: in vitro ADME; settings: for Plasma, percentage of unmodified compound: 37 °C, after 24 h of incubation; for half-life at 100 µM: pooled human plasma, pH 7.4, 37 °C, time before half of the drug is degraded, read-out: Plasma, t1/2
Description: Stability in plasma experiments. Pooled human plasma, purchased from Merck (0.9 mL, […]); hepes buffer (1.0 mL, 25 mM, NaCl 140 mM, pH 7.4); and tested compound dissolved in DMSO (100 µL, 2.0 mM) were mixed in a test tube incubated at 37 °C under continuous mechanical agitation. At set time points (0.0, 0.25, 0.50, 1.0, 3.0, 5.0, 8.0, and 24.0 h), samples of 100 µL were taken, mixed with 400 µL of cold acetonitrile, and centrifuged at 5000 rpm for 15 min. The supernatant was collected and analysed by UV/LC-MS to monitor the amount of unmodified compound. LC analyses of plasma stability tests were performed using Agilent 1100 LC/MSD VL system (G1946C) (Agilent Technologies, Palo Alto, CA, USA) constituting a vacuum solvent degassing unit, a binary high-pressure gradient pump, an 1100 series UV detector, and an 1100 MSD model VL benchtop mass spectrometer. A MSD single-quadrupole instrument was equipped with the orthogonal spray API-ES (Agilent Technologies, Palo Alto, CA, USA). The pressure of the nebulizing gas and the flow of the drying gas (nitrogen used for both) were set at 40 psi and 9 L/min, respectively. The capillary voltage, fragmentation voltage, and vaporization temperature were 3000 V, 10 V, and 350 °C, respectively. MSD was used in the positive and negative ion mode. Spectra were acquired over the scan range m/z 100–2000 using a step size of 0.1. Chromatographic analyses were performed using a Phenomenex Kinetex EVO C18-100Å (150 × 4.6 mm, 5 μm particle size) at room temperature, at a flow rate of 0.6 mL/min, injection volume of 10 μL, operating with a gradient elution of A: water (H2O) and B: acetonitrile (ACN). Both solvents were acidified with 0.1% v/v of formic acid. UV detection was monitored at 254 nm. The analysis started with 0% of B, then B was increased to 80% (from t = 0 to t = 20 min), then kept at 80% (from t = 20 to t = 25 min), and finally returned to 0% of eluent B in 5.0 min.

[3] = Release experiments (hydrolysis / payload release) in acidic acetate buffer, HPLC; format: physicochemical; settings: for peak intensity of the conjugate at pH 4.5: pH 4.5, HPLC
Description: as §1

| Compound | pH 7.4, percentage of unmodified compound [1] [%] | pH 7.4, t1/2 [1] [h] | H2O, percentage of unmodified compound (Stability test in water) [%] | half-life (Stability test in water) [h] | Plasma, percentage of unmodified compound [2] [%] | half-life at 100 µM [2] [h] | stability in solution at pH 7.4 [1] | peak intensity of the conjugate at pH 4.5 [3] | drug released at pH 5.5 after 48 h ([3]; pH 5.5, after 48 h) | rate of release at pH 5.5 (qualitative) ([3]; pH 5.5, compared with the other derivatives) | free Enzalutamide 9 detected at pH 4.5 ([3]; pH 4.5, 48 h, 37 °C) [%] | amide 9 released at pH 5.5 ([3]; pH 5.5, after 48 h at 37 °C) |
| --- | --- | --- | --- | --- | --- | --- | --- | --- | --- | --- | --- | --- |
| C#CCOc1cc(COC(=O)N(C[C@@H]2CN(c3ccc(N4CCOCC4)c(F)c3)C(=O)O2)C(C)=O)ccc1OCOCCOC [Compound 8b, {[3-(3-Fluoro-4-morpholinophenyl)-2-oxo-1,3-oxazolidin-5-yl]methyl}acetylamino-{4-[(2-methoxyethoxy)methoxy]-3-(2-propynyloxy)-phenyl}methylformylate] |  |  |  |  |  |  | stable | decreased |  |  |  |  |
| C#CCOc1cc(COC(=O)N(C)C(=O)c2ccc(N3C(=S)N(c4ccc(C#N)c(C(F)(F)F)c4)C(=O)C3(C)C)cc2F)ccc1OCOC [Compound 10, 4-(Methoxymethoxy)-3-(prop-2-yn-1-yloxy)benzyl (4-(3-(4-cyano-3-(trifluoromethyl)-phenyl)-5,5-dimethyl-4-oxo-2-thioxoimidazolidin-1-yl)-2-fluorobenzoyl)(methyl)-carbamate] |  |  |  |  |  |  | stable | decreased |  |  | 40 | only a small amount |
| C#CCOc1cc(COC(=O)N(C[C@H]2CN(c3ccc(N4CCOCC4)c(F)c3)C(=O)O2)C(C)=O)ccc1OCOC [Compound 8a, 4-(Methoxymethoxy)-3-(prop-2-yn-1-yloxy)benzyl (R)-acetyl((3-(3-fluoro-4-morpholino-phenyl)-2-oxooxazolidin-5-yl)methyl)carbamate] |  |  |  |  |  |  | stable | decreased |  |  |  |  |
| C#CCOc1cc(COC(=O)N(C)C(=O)c2ccc(N3C(=S)N(c4ccc(C#N)c(C(F)(F)F)c4)C(=O)C3(C)C)cc2F)cc2c1OC(OCC)O2 (stereo not shown) [Compound 16, (2-Ethoxy-7-(prop-2-yn-1-yloxy)benzo[d][1,3]dioxol-5-yl)methyl (4-(3-(4-cyano-3-(trifluoromethyl)phenyl)-5,5-dimethyl-4-oxo-2-thioxoimidazolidin-1-yl)-2-fluorobenzoyl)(methyl)carbamate] | 95 | > 48 | 99 | > 48 | 89 | > 24 |  |  |  |  |  |  |

Now from value to molecule, other results behind:

| pH 7.4, percentage of unmodified compound [1] [%] | pH 7.4, t1/2 [1] [h] | H2O, percentage of unmodified compound (Stability test in water) [%] | half-life (Stability test in water) [h] | Plasma, percentage of unmodified compound [2] [%] | half-life at 100 µM [2] [h] | stability in solution at pH 7.4 [1] | peak intensity of the conjugate at pH 4.5 [3] | drug released at pH 5.5 after 48 h ([3]; pH 5.5, after 48 h) | rate of release at pH 5.5 (qualitative) ([3]; pH 5.5, compared with the other derivatives) | Compound | free Enzalutamide 9 detected at pH 4.5 ([3]; pH 4.5, 48 h, 37 °C) [%] | amide 9 released at pH 5.5 ([3]; pH 5.5, after 48 h at 37 °C) |
| --- | --- | --- | --- | --- | --- | --- | --- | --- | --- | --- | --- | --- |
| 94 | > 48 | 99 | > 48 | 95 | > 24 |  |  |  |  | C#CCOc1cc(COC(=O)N(C[C@H]2CN(c3ccc(N4CCOCC4)c(F)c3)C(=O)O2)C(C)=O)cc2c1OC(OCC)O2 (stereo partly drawn) [Compound 15, (2-Ethoxy-7-(prop-2-yn-1-yloxy)benzo[d][1,3]dioxol-5-yl)methyl acetyl(((R)-3-(3-fluoro-4-morpholinophenyl)-2-oxooxazolidin-5-yl)methyl)carbamate] |  |  |
| 92 | > 48 | 99 | > 48 | 84 | > 24 |  |  | no more than 80% | faster | C#CCOc1cc(COC(=O)NS(=O)(=O)c2ccc(C)cc2)cc2c1OC(OCC)O2 (stereo not shown) [Compound 18, (2-Ethoxy-7-(prop-2-yn-1-yloxy)benzo[d][1,3]dioxol-5-yl)methyl tosylcarbamate] |  |  |
